# Data reported in US20220211692A1, “Modulators of the Cystic Fibrosis Transmembrane Conductance Regulator Protein and Methods of Use” (AbbVie Global Enterprises Ltd., priority 2021, published 2022).
# pEC50: −log10 of the molar value. Read-outs that look alike come from different tables or passages of the source.
# Experiments:
# [1] = biological target: T1, F508del/F508del CFTR (Homo sapiens, UniProt P13569, DEL508-508); experiment: Trans-Epithelial Current Clamp (TECC) assay using primary human bronchial epithelial cells; format: cell-based; details: for Emax (% Dual): maximum percent activity relative to positive control (co-corrector 0.15 μM + potentiator 0.45 μM = 100%); for pEC50: primary hBE cells F508del/F508del, test corrector with co-corrector and potentiator, 18-24 hours, equivalent CFTR current
# T1 construct: cells isolated from CF patients with the homozygous mutation; endogenous in cells; host or cells: primary human bronchial epithelial (hBE) cells from CF patients homozygous for F508del
# From the text: A cell-based assay was developed using the primary human bronchial epithelial cells (hBE cells) with F508del/F508del CFTR and other mutations.
# Primary human bronchial epithelial (hBE) cells from CFTR patients with homozygous F508del/F508del mutation were expanded from 1×10^6 to 250×10^6 cells (Neuberger, T et al., 2011, Methods Mol Biol 741:39-54). For this purpose, cells isolated from CF patients with the homozygous mutation, procured from the CF center tissue procurement and cell culture core at the Marsico Lung Institute at UNC (Randell), the Cystic Fibrosis translational research center at McGill University (University), and Rosalind Franklin University Medical School (RFUMS) were seeded onto 24 well Corning (Cat #3378) filter plates that were coated with 3T3 conditioned media and grown at an air-liquid interface for 35 days using an Ultroser® G supplemented differentiation media. All the primary human bronchial epithelial cells were collected in accordance with institutional review board approval protocols. Apical surface mucus was removed 72 hours before the experiment by incubating the apical surface of the cells for 30 minutes with 3 mM dithiothreitol (DTT) prepared in Dulbecco's phosphate buffered saline (DPBS) with Ca^2+ and Mg^2+. This was followed with aspiration of the mucus from the apical surface along with DPBS. The apical surface was re-washed with phosphate buffered saline (PBS) incubated for 30 minutes followed with aspiration. These hBE cells were then incubated with the desired concentrations of the test C2 corrector compounds along with co-corrector, 4-[(2R,4R)-4-({[1-(2,2-difluoro-1,3-benzodioxol-5-yl)cyclopropyl]carbonyl}amino)-7-(difluoromethoxy)-3,4-dihydro-2H-chromen-2-yl]benzoic acid and potentiator, (5-{3-amino-5-[4-(trifluoromethoxy)benzene-1-sulfonyl]pyridin-2-yl}-1,3,4-oxadiazol-2-yl)methanol, for 18-24 hours at 37° C., 5% CO2. The desired concentrations of the correctors and potentiator compounds were prepared from the 10 mM stocks in differentiation media and were always applied on the basolateral side of the epithelial cells. We also used an assay format where a fixed concentration of potentiator was added chronically along with the corrector compounds. This chronic treatment with the potentiator helped eliminate any interaction that might happen with CFTR modulators (correctors and potentiators) and thereby determined the true efficacy of the modulator combinations reflective of clinical relevance.
# The assay uses a Transepithelial Current Clamp (TECC) (Vu, C B et al., 2017; J Med Chem 60:458-473) instrument that can measure the functionality of the mutated channel by measuring the equivalent CFTR current (IEQ) generated by the polarized primary epithelial cells. We used a TECC-24 with a 24-channel electrode manifold allowing for the simultaneous measurement of the transepithelial voltage, VT, and transepithelial resistance, RT, under current clamp conditions, from 24 filters using a 24 well Costar filter plate. The design of the filters in the 24 well filter plates was exactly the same as the design of an individual Transwell filter used in the classical Ussing Chamber with a surface area of 0.33 cm^2. Each measured VT values were corrected for the electrode offset potential measured using buffer alone in a separate plate, and each measured RT values were then corrected for the combined solution series and empty filter resistances. The corrected VT and RT values were then used to calculate the equivalent current, IEQ using Ohm's law (IEQ=VT/RT). The area under the curve (AUC) for the time period between the forskolin peak IEQ response and at the time of bumetanide addition was also calculated using a one-third trapezoid method, in addition to calculating the IEQ. The assay was run in a 24-well format and all 24-wells were measured at the same time point giving a higher throughput for this assay. […]
# [2] = biological target: T2, F508delCFTR (Homo sapiens, UniProt P13569, DEL508-508); experiment: Cell Surface Expression-Horse Radish Peroxidase (CSE-HRP) assay in CFBE41o-F508delCFTR-HRP cells; format: cell-based; details: for pEC50: CFBE41o-F508delCFTR-HRP cells, 18-24 hours at 33° C.; for Maximum % activity (with co-corrector) / Emax: normalized to on-plate positive control; for Emax: read-out: Maximum % activity (without co-corrector)
# T2 construct: expressed in transfected cells; host or cells: CFBE41o- human lung derived epithelial cell line, doxycycline-induced expression
# Procedure: A cellular assay for measuring the F508delCFTR cell surface expression after correction with test compounds either without or with a co-corrector (2 μM of 3-[(2R,4R)-4-({[1-(2,2-difluoro-1,3-benzodioxol-5-yl)cyclopropyl]carbonyl}amino)-7-methoxy-3,4-dihydro-2H-chromen-2-yl]benzoic acid), was developed in human lung derived epithelial cell line (CFBE41o-) (Veit G et al, (2012) Mol Biol Cell. 23(21): 4188-4202). The development was achieved by expressing the F508delCFTR mutation along with a horseradish peroxidase (HRP) in the fourth exofacial loop, and then measuring the HRP activity using luminescence readout from these cells, CFBE41o-F508delCFTR-HIRP, that were incubated overnight with the test corrector compounds, either without or with the co-corrector. For this primary assay, the CFBE41o-F508delCFTR-HRP cells were plated in 384-well plates (Greiner Bio-one; Cat 781080) at 4,000 cells/well along with 0.5 μg/mL doxycycline to induce the F508delCFTR-HRP expression and further incubated at 37° C., […] for 68-72 hours. The test compounds were then added either without or with a co-corrector at the required concentrations and further incubated for 18-24 hours at 33° C. The highest concentration tested was 20 μM or 30 μM (GI-1 to GIII-36) with an 8-point concentration response curve using a 3-fold dilution in both the test compound without or with the co-corrector. Three replicate plates were run to determine one EC50. All plates contained negative controls (dimethyl sulfoxide, DMSO) and positive control (2 μM or 3 μM (GI-1 to GIII-36) of 3-[(2R,4R)-4-({[1-(2,2-difluoro-1,3-benzodioxol-5-yl)cyclopropyl]carbonyl}amino)-7-methoxy-3,4-dihydro-2H-chromen-2-yl]benzoic acid) as well as on-plate concentration response of the positive control. Post incubation, the plates were washed 5× times with Dulbecco's phosphate buffered saline (DPBS), followed by the addition of the HRP substrate, luminol (50 μL), and measuring the HRP activity using luminescence readout on EnVision® Multilabel Plate Reader (Perkin Elmer; product number 2104-0010). The raw counts from the experiment were analyzed using Accelrys® Assay Explorer v3.3.
# Z′ greater than 0.5 was used as passing quality control criteria for the plates. The Z′ is defined as:
# 1−[3*SDPositive Control+3*SDNegative Control/Absolute(MeanPositive Control−MeanNegative Control)]
# The % activity measured at each of the 8 test concentrations of the test compound added either without or with a co-corrector (2 μM or 3 μM (GI-1 to GIII-36) of 3-[(2R,4R)-4-({[1-(2,2-difluoro-1,3-benzodioxol-5-yl)cyclopropyl]carbonyl}amino)-7-methoxy-3,4-dihydro-2H-chromen-2-yl]benzoic acid) was normalized to the on-plate positive control using the following formulae:
# % activity (Test compound without co-corrector)=[(test compound without co-corrector response−DMSO response)/(positive control response−DMSO response)]*100
# % activity (Test compound with co-corrector)=[(test compound with co-corrector response−DMSO response)/(positive control response−DMSO response)]*100
# The maximum % activity achieved for the test compound either without or with a co-corrector at any tested concentration is presented in Table 3 along with the respective EC50's calculated using the following general sigmoidal curve with variable Hill slope equation (described as Model 42 in the Accelrys® Assay Explorer v3.3 software):
# General sigmoidal curve with concentration, response, top, bottom, EC50 and Hill slope. This model describes a sigmoidal curve with an adjustable baseline, a. The equation can be used to fit curves where response is either increasing or decreasing with respect to the independent variable, “x”.
# [3] = with co-corrector 2 μM, read-out: EC50 (with co-corrector)
# [4] = without co-corrector, read-out: EC50 (without co-corrector)
# T2 sequence (P13569 with tags, fused parts or gaps DEL508-508): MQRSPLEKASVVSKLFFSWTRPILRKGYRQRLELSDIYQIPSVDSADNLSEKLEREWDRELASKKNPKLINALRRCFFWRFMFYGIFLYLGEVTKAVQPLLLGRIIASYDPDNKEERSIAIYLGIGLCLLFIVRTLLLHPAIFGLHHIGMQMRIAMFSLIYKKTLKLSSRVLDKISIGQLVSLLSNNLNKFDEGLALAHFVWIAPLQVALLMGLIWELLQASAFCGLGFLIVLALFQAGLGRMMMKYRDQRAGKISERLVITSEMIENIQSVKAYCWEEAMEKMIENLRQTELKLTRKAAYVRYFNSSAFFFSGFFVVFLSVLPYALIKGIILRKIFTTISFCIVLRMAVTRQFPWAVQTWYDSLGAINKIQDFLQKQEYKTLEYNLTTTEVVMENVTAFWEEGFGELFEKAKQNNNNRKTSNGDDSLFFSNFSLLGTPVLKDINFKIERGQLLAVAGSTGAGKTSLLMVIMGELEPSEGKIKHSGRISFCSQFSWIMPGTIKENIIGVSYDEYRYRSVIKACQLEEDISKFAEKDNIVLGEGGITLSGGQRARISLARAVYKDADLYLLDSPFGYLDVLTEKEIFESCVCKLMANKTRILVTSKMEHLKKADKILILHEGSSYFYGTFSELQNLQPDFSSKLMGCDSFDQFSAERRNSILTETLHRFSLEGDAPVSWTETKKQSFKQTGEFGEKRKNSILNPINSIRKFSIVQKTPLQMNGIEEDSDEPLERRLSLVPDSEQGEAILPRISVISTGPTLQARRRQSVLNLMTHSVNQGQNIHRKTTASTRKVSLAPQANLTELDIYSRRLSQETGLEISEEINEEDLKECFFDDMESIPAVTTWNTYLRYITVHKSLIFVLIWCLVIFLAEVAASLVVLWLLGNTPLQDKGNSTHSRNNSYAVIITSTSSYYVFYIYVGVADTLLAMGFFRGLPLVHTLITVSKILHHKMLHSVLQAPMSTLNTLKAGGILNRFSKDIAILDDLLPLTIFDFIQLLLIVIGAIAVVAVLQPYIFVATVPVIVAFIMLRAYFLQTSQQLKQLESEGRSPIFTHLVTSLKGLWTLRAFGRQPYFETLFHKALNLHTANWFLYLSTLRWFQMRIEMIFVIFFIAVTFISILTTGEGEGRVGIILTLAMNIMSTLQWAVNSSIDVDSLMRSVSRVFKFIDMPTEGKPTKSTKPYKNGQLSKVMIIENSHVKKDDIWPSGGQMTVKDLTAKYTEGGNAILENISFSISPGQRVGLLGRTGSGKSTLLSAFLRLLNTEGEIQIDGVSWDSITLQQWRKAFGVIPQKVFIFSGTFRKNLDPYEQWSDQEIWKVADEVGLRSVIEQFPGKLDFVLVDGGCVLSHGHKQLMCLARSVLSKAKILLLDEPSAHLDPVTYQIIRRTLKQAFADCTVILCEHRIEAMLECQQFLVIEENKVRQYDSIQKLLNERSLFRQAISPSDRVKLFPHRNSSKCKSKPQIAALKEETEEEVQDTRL
# T1 sequence (P13569 with tags, fused parts or gaps DEL508-508): as above
Structure (SMILES),Emax (% Dual) [1],pEC50 [1],"pEC50 [2, 3]",Maximum % activity (with co-corrector) ([2]; with co-corrector 2 μM),"pEC50 [2, 4]",Emax ([2]; without co-corrector)
"COc1ccc(C)cc1[C@@]1(C(=O)NS(=O)(=O)c2cccc3nc(C)ccc23)C[C@@H](C)CO1 [Example 19, (2R,4R)-2-(2-methoxy-5-methylphenyl)-4-methyl-N-(2-methylquinoline-5-sulfonyl)oxolane-2-carboxamide]",253 % Dual,7.48,6.14,850%,6.06,339%
"CCc1ccc(OCC(C)OC)c([C@@]2(C(=O)NS(=O)(=O)c3cccc4nc(C)ccc34)CCCO2)c1 (stereo in doubt) [Example 14, (2R)-2-{5-ethyl-2-[(2S)-2-methoxypropoxy]phenyl}-N-(2-methylquinoline-5-sulfonyl)oxolane-2-carboxamide]",161 % Dual,6.61,5.60,871%,5.46,334%
"COc1ccc(C)cc1[C@]1(C(=O)NS(=O)(=O)c2cccc3nc(C)ccc23)C[C@@H](c2ccccc2)CO1 [Example 36, (2S,4S)-2-(2-methoxy-5-methylphenyl)-N-(2-methylquinoline-5-sulfonyl)-4-phenyloxolane-2-carboxamide]",255 % Dual,7.51,6.09,–,5.80,443%
"CCOc1ccc(CC)cc1[C@]1(C(=O)NS(=O)(=O)c2cccc3nc(C)ccc23)CCCO1 [Example 10, (2S)-2-(2-ethoxy-5-ethylphenyl)-N-(2-methylquinoline-5-sulfonyl)oxolane-2-carboxamide]",129 % Dual,< 6.52,5.57,711%,5.41,303%
"CCc1ccc(OC[C@H](C)OC)c([C@]2(C(=O)NS(=O)(=O)c3cccc4nc(C)ccc34)CCCO2)c1 [Example 13, (2S)-2-{5-ethyl-2-[(2S)-2-methoxypropoxy]phenyl}-N-(2-methylquinoline-5-sulfonyl)oxolane-2-carboxamide]",119 % Dual,< 6.52,5.30,399%,5.19,122%
"COc1ccc(C)cc1[C@@]1(C(=O)NS(=O)(=O)c2cccc3nc(C)ccc23)C[C@H](OC)CO1 [Example 28, (2R,4S)-4-methoxy-2-(2-methoxy-5-methylphenyl)-N-(2-methylquinoline-5-sulfonyl)oxolane-2-carboxamide]",182 % Dual,5.96,5.46,513%,5.39,180%

# Compounds with a higher pEC50 [1], results first:
Emax (% Dual) [1],pEC50 [1],"pEC50 [2, 3]",Maximum % activity (with co-corrector) ([2]; with co-corrector 2 μM),"pEC50 [2, 4]",Emax ([2]; without co-corrector),Structure (SMILES)
239 % Dual,7.58,6.70,–,6.33,470%,"COc1ccccc1[C@@H]1CO[C@@](C(=O)NS(=O)(=O)c2cccc3nc(C)ccc23)(c2cc(C)ccc2OC)C1 [Example 39, (2R,4R)-2-(2-methoxy-5-methylphenyl)-4-(2-methoxyphenyl)-N-(2-methylquinoline-5-sulfonyl)oxolane-2-carboxamide]"
274 % Dual,7.71,6.57,–,6.12,872%,"COc1ccc(C)cc1[C@@]1(C(=O)NS(=O)(=O)c2cccc3nc(N)ccc23)C[C@H](c2ccccc2)CO1 [Example 41, (2R,4R)—N-(2-aminoquinoline-5-sulfonyl)-2-(2-methoxy-5-methylphenyl)-4-phenyloxolane-2-carboxamide]"
199 % Dual,7.93,5.89,–,5.81,857%,"CCc1ccc(Oc2cccnc2OC(F)F)c(C2(C(=O)NS(=O)(=O)c3cccc4nc(C)ccc34)CCCO2)c1 (stereo not shown) [Example 21, 2-(2-{[2-(difluoromethoxy)pyridin-3-yl]oxy}-5-ethylphenyl)-N-(2-methylquinoline-5-sulfonyl)oxolane-2-carboxamide]"
339 % Dual,8.49,6.36,–,6.23,702%,"COc1ccc(C)cc1[C@@]1(C(=O)NS(=O)(=O)c2cccc3nc(C)ccc23)CC[C@@H](c2ccccc2)O1 [Example 8, (2R,5S)-2-(2-methoxy-5-methylphenyl)-N-(2-methylquinoline-5-sulfonyl)-5-phenyloxolane-2-carboxamide]"
